Source: US20250345459A1, “COMPOUND OR SALT THEREOF, LIPID COMPOSITION, PHARMACEUTICAL COMPOSITION, AND DELIVERY CARRIER” (FUJIFILM Corporation, priority 2023, published 2025)

How the values were obtained:
EPO mRNA = test: mRNA encapsulation rate of mRNA lipid nanoparticles; type: physicochemical
Protocol: (§1) The compounds described in Table 1, the neutral lipid, cholesterol (product name: Cholesterol HP; NIPPON FINE CHEMICAL CO., LTD.), and 1,2-dimyristoyl-rac-glycero-3-(methylpolyoxyethylene 2000) (hereinafter, called DMG-PEG2000) (product name: SUNBRIGHT® GM-020; NOF corporation) were dissolved in ethanol at a molar ratio of ionized lipid:neutral lipid:cholesterol:DMG-PEG2000=50:10:38.5:1.5 mol % such that the total lipid concentration was 12.5 mmol/L, to obtain an oil phase.
(§2) As the neutral lipid, 1,2-distearoyl-sn-glycero-3-phosphocholine (product name: COATSOME® MC-8080; NOF corporation) (hereinafter, DSPC), or L-α-dioleoylphosphatidylethanolamine (hereinafter, DOPE) (product name: COATSOME® MC-8181; NOF corporation) was used.
(§3) EPO mRNA (product name: CleanCap EPO mRNA (5 moU); TriLink) was diluted with 50 mmol/L citrate buffer having a pH 4.0 such that the weight ratio of total lipid concentration to mRNA concentration is about 20:1 to 64:1, thereby obtaining a water phase. Then, the water phase and the oil phase were mixed together using NanoAssemblr (Precision NanoSystems) such that the volume ratio of water phase:oil phase was 3:1. The mixed solution was diluted 2-fold with any of phosphate buffered physiological saline (PBS), water, or a 20 mmol/L Tris buffer solution (pH 7.4) to obtain a dispersion liquid of mRNA lipid nanoparticles. The dispersion liquid was dialyzed with 20 mmol/L Tris buffer solution (pH 7.4) containing 8% sucrose using a dialysis cassette (Slide-A-Lyzer G2, MWCO: 10 kD, Thermo Fisher Scientific) to remove ethanol, thereby obtaining EPO mRNA-encapsulating lipid nanoparticles.
EPO mRNA was diluted with MilliQ water to prepare a diluted sample in 2-fold dilution series from 100 µg/mL to […], and a calibration curve solution was prepared. 50 μL of the calibration curve solution or the mRNA lipid nanoparticles was mixed with 450 μL of methanol to prepare a measurement solution.
The absorbance of each measurement solution at 260 nm and 330 nm was measured using a UV plate reader (Multiskan Go, Thermo Fisher Scientific), the absorbance at 330 nm was subtracted from the absorbance at 260 nm, and the result was defined as the absorbance of each measurement solution. The total […] nucleic acid concentration was calculated from the calibration curve using the absorbance of each sample measurement solution.
The concentration of the outer water phase nucleic acid was quantified by a standard addition method using a QuanT-iT RiboGreen RNA Assay Kit (Thermo Fisher Scientific). First, a 20× TE buffer included in the above kit was diluted with water, thereby obtaining a 1×TE buffer. TE represents Tris/EDTA (ethylenediaminetetraacetic acid). EPO mRNA was diluted with a TE buffer such that the final concentration was 0 to 400 ng/mL to prepare a nucleic acid diluted series. 10 μL of mRNA lipid nanoparticles diluted 5-fold with TE buffer and 90 µL of a nucleic acid dilution series were mixed in a 96-well plate, 100 μL of a Ribogreen reagent diluted 200-fold with TE buffer was added to each well, and then fluorescence (excitation wavelength: 485 nm, fluorescence wavelength: 535 nm) was measured using a fluorescence plate reader (Infinite 200 Pro M nano+, TECAN). From the obtained results, the outer water phase nucleic acid concentration of each measurement solution was calculated according to the standard addition method.
By using the quantification results of the total mRNA concentration and the mRNA concentration in the outer water phase that were obtained through the above steps, the mRNA encapsulation rate of the mRNA lipid nanoparticles was calculated according to the following Equation. […]

ICR mice = test: EPO protein expression in mice after intravenous EPO mRNA lipid nanoparticles; type: in vivo; settings: mRNA 0.1 mg/kg, plasma 6 hours after administration
Protocol: as §1, §2, §3
The dispersion liquid of mRNA lipid nanoparticles prepared in above <Preparation of EPO mRNA-encapsulating lipid nanoparticles> was intravenously administered to ICR mice at a mRNA dosage of 0.1 mg/kg. 6 hours after the administration, blood was collected from the caudal vena cava, thereby obtaining plasma. The human EPO […] was quantified by using the obtained blood plasma and Erythropoietin (EPO) Human Elisa Kit (Abcam.plc). The quantitative value is described as a relative amount of EPO protein in a case where Comparative Example 1 is 1.

[1] = Particle size of EPO mRNA-encapsulating lipid nanoparticles; type: physicochemical
Protocol: as §1, §2, §3
The particle size of the mRNA-encapsulating lipid nanoparticles was measured by 5-fold diluting the dispersion liquid of lipid nanoparticle with phosphate buffered physiological saline (PBS) using a particle size measurement device NanoSaqla (Otsuka Electronics Co., Ltd.).

[2] = LNP with neutral lipid DOPE, mixed solution PBS, Lipid/Nucleic acid (wt/wt) 64
[3] = LNP with neutral lipid DSPC, mixed solution 20 mM Tris, Lipid/Nucleic acid (wt/wt) 20
[4] = LNP with neutral lipid DSPC, mixed solution PBS, Lipid/Nucleic acid (wt/wt) 20
[5] = LNP with neutral lipid DSPC, mixed solution Water, Lipid/Nucleic acid (wt/wt) 20
[6] = neutral lipid DOPE, Lipid/Nucleic acid (wt/wt) 64, Comparative Example 1 is 1
[7] = neutral lipid DSPC, Lipid/Nucleic acid (wt/wt) 20, Comparative Example 1 is 1

Nucleic acid encapsulation rate (%) (EPO mRNA; [2]) | Nucleic acid encapsulation rate (%) (EPO mRNA; [3]) | Nucleic acid encapsulation rate (%) (EPO mRNA; [4]) | Nucleic acid encapsulation rate (%) (EPO mRNA; [5]) | Particle size (nm) [1, 2] [nm] | Particle size (nm) [1, 3] [nm] | Particle size (nm) [1, 4] [nm] | Particle size (nm) [1, 5] [nm] | Compound | Relative amount of EPO protein (to Comparative Example 1) (ICR mice; [6]) | Relative amount of EPO protein (to Comparative Example 1) (ICR mice; [7])
 |  | 78 |  |  |  | 155 |  | CCCCCCCCCCCOC(=O)CN(CC(=O)OCCCCCCCCCCC)C(=O)OCCN(CCOC(=O)N(CC(=O)OCCCCCCCCCCC)CC(=O)OCCCCCCCCCCC)CCN(CC)CC [Example 33, Diundecyl 8-(2-(diethylamino)ethyl)-4,12-dioxo-3,13-bis(2-oxo-2-(undecyloxy)ethyl)-5,11-dioxa-3,8,13-triazapentadecanedioate] |  | 2.90
 |  | 93 |  |  |  | 165 |  | CCCCCCCCN(CCCCC(=O)OCC(CCCCC)CCCCC)C(=O)OCCN(CCCN(CC)CC)CCOC(=O)N(CCCCCCCC)CCCCC(=O)OCC(CCCCC)CCCCC [Example 35, Bis(2-pentylheptyl) 11-(3-(diethylamino)propyl)-6,16-dioctyl-7,15-dioxo-8,14-dioxa-6,11,16-triazahenicosanedioate] |  | 6.49
 |  | 93 |  |  |  | 145 |  | CCCCCCCCN(CCCCC(=O)OCC(CCCCC)CCCCC)C(=O)OCCN(CCCCN(CC)CC)CCOC(=O)N(CCCCCCCC)CCCCC(=O)OCC(CCCCC)CCCCC [Example 36, Bis(2-pentylheptyl) 11-(4-(diethylamino)butyl)-6,16-dioctyl-7,15-dioxo-8,14-dioxa-6,11,16-triazahenicosanedioate] |  | 6.40
 |  | 93 |  |  |  | 136 |  | CCCCCCCCN(CCCCC(=O)OCC(CCCCCC)CCCCCC)C(=O)OCCN(CCCN(CC)CC)CCOC(=O)N(CCCCCCCC)CCCCC(=O)OCC(CCCCCC)CCCCCC [Example 37, Bis(2-hexyloctyl) 11-(3-(diethylamino)propyl)-6,16-dioctyl-7,15-dioxo-8,14-dioxa-6,11,16-triazahenicosanedioate] |  | 11.39

Continued, molecule first:

Compound | Nucleic acid encapsulation rate (%) (EPO mRNA; [2]) | Nucleic acid encapsulation rate (%) (EPO mRNA; [3]) | Nucleic acid encapsulation rate (%) (EPO mRNA; [4]) | Nucleic acid encapsulation rate (%) (EPO mRNA; [5]) | Particle size (nm) [1, 2] [nm] | Particle size (nm) [1, 3] [nm] | Particle size (nm) [1, 4] [nm] | Particle size (nm) [1, 5] [nm] | Relative amount of EPO protein (to Comparative Example 1) (ICR mice; [6]) | Relative amount of EPO protein (to Comparative Example 1) (ICR mice; [7])
CCCCCCN(CCCCC(=O)OCC(CCCCC)CCCCC)C(=O)OCCN(CCOC(=O)N(CCCCCC)CCCCC(=O)OCC(CCCCC)CCCCC)CCN(CC)CC [Example 4, bis(2-pentylheptyl) 11-(2-(diethylamino)ethyl)-6,16-dihexyl-7,15-dioxo-8,14-dioxa-6,11,16-triazahenicosanedioate] | >99 | 91 | 92 | 91 | 109.5 | 96 | 94 | 93 | 13.62 | 12.27
CCCCCCC(CCCCCC)COC(=O)CCCCN(CCCCCC)C(=O)OCCN(CCOC(=O)N(CCCCCC)CCCCC(=O)OCC(CCCCCC)CCCCCC)CCN(CC)CC [Example 5, Bis(2-hexyloctyl) 11-(2-(diethylamino)ethyl)-6,16-dihexyl-7,15-dioxo-8,14-dioxa-6,11,16-triazahenicosanedioate] | 99 |  | 93 |  | 106.8 |  | 88 |  | 11.74 | 9.14
CCCCCCC(CCCC)COC(=O)CCCCN(CCCCCC)C(=O)OCCN(CCOC(=O)N(CCCCCC)CCCCC(=O)OCC(CCCC)CCCCCC)CCN(CC)CC (stereo not shown) [Example 17, Bis(2-butyloctyl) 11-(2-(diethylamino)ethyl)-6,16-dihexyl-7,15-dioxo-8,14-dioxa-6,11,16-triazahenicosanedioate] |  |  | 80 |  |  |  | 165 |  |  | 5.76
CCCCCCCCCCCC(=O)OCCN(CCOC(=O)CCCCCCCCCCC)C(=O)OCCN(CCOC(=O)N(CCOC(=O)CCCCCCCCCCC)CCOC(=O)CCCCCCCCCCC)CCN(CC)CC [Example 20, 2-(2-(2-(bis(2-dodecanoyloxyethyl)carbamoyloxy)ethyl-(2-(diethylamino)ethyl)amino)ethoxycarbonyl-(2-dodecanoyloxyethyl)amino)ethyl dodecanoate] |  |  | 82 |  |  |  | 151 |  |  | 1.63
CCCCCCC(CCCCCC)COC(=O)CCCCN(CCCC)C(=O)OCCN(CCOC(=O)N(CCCC)CCCCC(=O)OCC(CCCCCC)CCCCCC)CCN(CC)CC [Example 23, Bis(2-hexyloctyl) 6,16-dibutyl-11-(2-(diethylamino)ethyl)-7,15-dioxo-8,14-dioxa-6,11,16-triazahenicosanedioate] |  |  | 79 |  |  |  | 180 |  |  | 1.61
CCCCCCC(CCCCCC)COC(=O)CCCCN(CCCC)C(=O)OCCN(CCCN(CC)CC)CCOC(=O)N(CCCC)CCCCC(=O)OCC(CCCCCC)CCCCCC [Example 24, Bis(2-hexyloctyl) 6,16-dibutyl-11-(3-(diethylamino)propyl)-7,15-dioxo-8,14-dioxa-6,11,16-triazahenicosanedioate] |  |  | 92 |  |  |  | 197 |  |  | 1.48
CCCCCCN(CCCCCC(=O)OCC(CCCCC)CCCCC)C(=O)OCCN(CCOC(=O)N(CCCCCC)CCCCCC(=O)OCC(CCCCC)CCCCC)CCN(CC)CC [Example 25, Bis(2-pentylheptyl) 12-(2-(diethylamino)ethyl)-7,17-dihexyl-8,16-dioxo-9,15-dioxa-7,12,17-triazatricosanedioate] |  |  | 78 |  |  |  | 167 |  |  | 3.56
CCCCCCN(CCCCCC(=O)OCC(CCCCC)CCCCC)C(=O)OCCN(CCCN(CC)CC)CCOC(=O)N(CCCCCC)CCCCCC(=O)OCC(CCCCC)CCCCC [Example 26, Bis(2-pentylheptyl) 12-(3-(diethylamino)propyl)-7,17-dihexyl-8,16-dioxo-9,15-dioxa-7,12,17-triazatricosanedioate] |  |  | 91 |  |  |  | 178 |  |  | 4.10
CCCCCCCCCCOC(=O)CN(CC(=O)OCCCCCCCCCC)C(=O)OCCN(CCOC(=O)N(CC(=O)OCCCCCCCCCC)CC(=O)OCCCCCCCCCC)CCN(CC)CC [Example 27, Decyl 2-(2-(2-(bis(2-decoxy-2-oxo-ethyl)carbamoyloxy)ethyl-(2-(diethylamino)ethyl)amino)ethoxycarbonyl-(2-decoxy-2-oxo-ethyl)amino)acetate] |  |  | 82 |  |  |  | 149 |  |  | 3.85
